The record followed here is ChEMBL document CHEMBL1156583, “Zwitterionic uracil derivatives as potent GnRH receptor antagonists with improved pharmaceutical properties” (Bioorg Med Chem Lett, 2008).

Series [1] concerns the target T1, Gonadotropin-releasing hormone receptor (Homo sapiens, UniProt P30968).
T1 sequence (P30968 whole entry): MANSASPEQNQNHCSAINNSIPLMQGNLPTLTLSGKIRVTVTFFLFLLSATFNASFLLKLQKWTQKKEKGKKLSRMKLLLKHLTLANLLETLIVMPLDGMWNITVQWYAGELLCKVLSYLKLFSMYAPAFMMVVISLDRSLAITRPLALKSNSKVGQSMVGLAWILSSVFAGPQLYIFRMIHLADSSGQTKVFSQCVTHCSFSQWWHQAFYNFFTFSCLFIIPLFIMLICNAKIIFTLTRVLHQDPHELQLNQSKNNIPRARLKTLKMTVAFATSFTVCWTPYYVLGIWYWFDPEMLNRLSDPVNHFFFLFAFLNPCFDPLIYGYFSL
As to the kind of experiment: Displacement of [125I]Pro-N-Et-GnRH from human cloned GnRH receptor expressed in HEK cells. The format is cell-based, HEK293. (In general: Loss of bound radioactivity is the signal in a displacement assay; it reports binding, not function.)

A further series addresses Cytochrome P450 3A4 (Homo sapiens, UniProt P08684). As to the kind of experiment: Inhibition of recombinant CYP3A4 by microtiter plate-based fluorimetric assay. The format is ADME.
Another series concerns the target CYP3A4 (Homo sapiens, UniProt P08684). As to the kind of experiment: Inhibition of recombinant CYP3A4 at 200 uM by microtiter plate-based fluorimetric assay. The format is ADME.
Series [2] has as its target T1, Gonadotropin-releasing hormone receptor. As to the kind of experiment: Displacement of [125I]tyr5,D-Leu6,NMeLeu7-GnRH from human cloned GnRH receptor expressed in RBL cells. The format is cell-based.
A short description of series [3]: Oral bioavailability in Sprague-Dawley rat at 10 mg/kg. The format is ADME, organism-based. As to conditions: in vivo.
Series [4] can be described thus: Permeability from apical to basolateral side of human Caco-2 cell membrane. The format is ADME, cell-based. A general note: Caco-2 monolayers are a common model of the intestinal barrier.
Series [5] is described as follows: Half life in Sprague-Dawley rat at 2.5 mg/kg, iv. The format is ADME, organism-based. Also noted: dose 2.5 mg/kg, route intravenous. As to conditions: in vivo.
In series [6] the target is T1, Gonadotropin-releasing hormone receptor. As to the kind of experiment: Antagonist activity at human GnRH receptor expressed in RBL cells assessed as inhibition of GnRH-stimulated [3H]inositol phosphate hydrolysis by whole cell assay. The format is functional, cell-based.
Series [7] in a line: Clearance in Sprague-Dawley rat at 2.5 mg/kg, iv. The format is ADME, organism-based. Details: dose 2.5 mg/kg, route intravenous. As to conditions: in vivo.

The term Ki denotes a dissociation constant, usually derived from enzyme kinetics or from competition with a known ligand. Broadly, the IC50 is the concentration that gives 50% inhibition. Broadly, the inhibition is the percentage by which the read-out fell short of the control. What is called bioavailability is the share of a dose that reaches the circulation, judged against a reference dose that is usually intravenous. A lower bioavailability goes with little systemic uptake. Broadly, the Papp A→B is the apparent permeability from the apical to the basolateral side of a cell layer. Low readings indicate poor permeation, high ones ready permeation. As usually defined, the half-life is how long it takes for the measured level to halve. By clearance is commonly meant the rate of elimination divided by the concentration.

Chain of Cytochrome P450 3A4 (P08684 whole entry): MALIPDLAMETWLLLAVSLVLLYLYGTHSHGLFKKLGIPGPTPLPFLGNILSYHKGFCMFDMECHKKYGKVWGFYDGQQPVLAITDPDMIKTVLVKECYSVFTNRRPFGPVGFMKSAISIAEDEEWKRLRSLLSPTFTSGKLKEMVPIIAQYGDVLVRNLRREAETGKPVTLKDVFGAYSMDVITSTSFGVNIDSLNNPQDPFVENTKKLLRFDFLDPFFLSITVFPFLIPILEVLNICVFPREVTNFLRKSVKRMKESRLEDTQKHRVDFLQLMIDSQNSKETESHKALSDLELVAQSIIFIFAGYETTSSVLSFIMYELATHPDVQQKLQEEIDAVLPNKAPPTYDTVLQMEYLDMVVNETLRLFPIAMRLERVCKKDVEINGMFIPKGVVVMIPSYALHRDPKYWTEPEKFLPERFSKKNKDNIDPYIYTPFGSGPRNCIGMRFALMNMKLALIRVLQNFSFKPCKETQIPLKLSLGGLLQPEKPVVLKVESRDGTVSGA
Chain of CYP3A4 (P08684 whole entry): as above

For the compound `N[C@@H](Cn1c(=O)c(-c2cccc(OCCCCCC(=O)O)c2F)cn(Cc2c(F)cccc2C(F)(F)F)c1=O)c1ccccc1`, in [1], affinity was put at a Ki of 33 nM. Further, at Cytochrome P450 3A4, the 50% inhibitory concentration (IC50) turned out to be 25000 nM.
With `Cc1c(-c2cccc(OCC(=O)O)c2F)c(=O)n(C[C@H](N)c2ccccc2)c(=O)n1Cc1c(F)cccc1C(F)(F)F`, the inhibition at 200 µM on CYP3A4 worked out at 16%. The same compound came in with a Ki in series [2] of 52 nM.
Consider `CN[C@@H](Cn1c(=O)c(-c2cccc(OCCC(C)(C)CC(=O)O)c2F)c(C)n(Cc2c(F)cccc2C(F)(F)F)c1=O)c1ccccc1`, for which the IC50 on Cytochrome P450 3A4 turned out to be 22000 nM. Further, the Ki in [2] is 29 nM.
`CN[C@@H](Cn1c(=O)c(-c2cccc(OCCCN(C)CC(=O)O)c2F)c(C)n(Cc2c(F)cccc2C(F)(F)F)c1=O)c1ccccc1` yielded a Ki in series [2] of 35 nM.
On to `Cc1c(-c2cccc(OCCCC(=O)O)c2F)c(=O)n(C[C@H](N)c2ccccc2)c(=O)n1Cc1c(F)cccc1C(F)(F)F`, for which the inhibition at 200 µM on CYP3A4 turned out to be 21%. Further, the Ki in series [2] was found to be 4.7 nM.
Turning to `CN[C@@H](Cn1c(=O)c(-c2cccc(OCCCOCC(=O)O)c2F)c(C)n(Cc2c(F)cccc2C(F)(F)F)c1=O)c1ccccc1`, at Cytochrome P450 3A4, the IC50 was 22000 nM. In series [2], the Ki came out at 38 nM.
The compound `CN[C@@H](Cn1c(=O)c(-c2cccc(OCCNCC(=O)O)c2F)c(C)n(Cc2c(F)cccc2C(F)(F)F)c1=O)c1ccccc1` registered a Ki in series [2] of 27 nM.
For `CN[C@@H](Cn1c(=O)c(-c2cccc(OCCOCC(=O)O)c2F)c(C)n(Cc2c(F)cccc2C(F)(F)F)c1=O)c1ccccc1`, the IC50 on Cytochrome P450 3A4 was found to be 10000 nM. Moreover, in series [2], the Ki worked out at 9.3 nM.
`Cc1c(-c2cccc(OCCCCC(=O)O)c2F)c(=O)n(C[C@H](N)c2ccccc2)c(=O)n1Cc1c(F)cccc1C(F)(F)F`: the Ki in [1] worked out at 1.2 nM; in [2] it was 1 nM. Further, the bioavailability in series [3] was 6.6%. The same compound yielded a Papp A→B in series [4] of 0.1 ×10⁻⁶ cm/s. The same compound gave a half-life in series [5] of 6.6 h. Also, the IC50 in [6] was 2.6 nM. Besides, the clearance in series [7] came out at 14 mL/min/kg.
Turning to `N[C@@H](Cn1c(=O)c(-c2cccc(OCCCCC(=O)O)c2F)cn(Cc2c(F)cccc2C(F)(F)F)c1=O)c1ccccc1`, in series [1], the Ki is 34 nM. Also, the IC50 on Cytochrome P450 3A4 was 36000 nM.
With `CN[C@@H](Cn1c(=O)c(-c2cccc(OCCN(C)CC(=O)O)c2F)c(C)n(Cc2c(F)cccc2C(F)(F)F)c1=O)c1ccccc1`, the affinity in [2], expressed as Ki, was 98 nM.
As to `Cc1c(-c2cccc(OCCCCCC(=O)O)c2)c(=O)n(C[C@H](N)c2ccccc2)c(=O)n1Cc1c(F)cccc1C(F)(F)F`, the Ki in series [1] was determined as 2.1 nM; in [2], 1.1 nM. This compound returned a bioavailability in [3] of 4.8%. Besides, the half-life in series [5] was 4.9 h. Besides, the IC50 in [6] was found to be 2.8 nM. The compound also had a clearance in [7] of 36 mL/min/kg.
On to `Cc1c(-c2cccc(OCCCCCC(=O)O)c2F)c(=O)n(C[C@H](N)c2ccccc2)c(=O)n1Cc1c(F)cccc1C(F)(F)F`, for which the results for the Ki in series [1] and in [2] were 1.3 nM and 1.2 nM, respectively. For the same compound, the bioavailability in series [3] was found to be 3.7%. In series [5], this compound showed a half-life of 2.9 h. Moreover, the IC50 on Cytochrome P450 3A4 is 8200 nM; in series [6], 0.6 nM. The same compound showed a clearance in series [7] of 21 mL/min/kg.
For `Cc1c(-c2cccc(OCCCC(=O)O)c2)c(=O)n(C[C@H](N)c2ccccc2)c(=O)n1Cc1c(F)cccc1C(F)(F)F`, the IC50 in [6] is 23 nM. Besides, the Ki in series [2] was found to be 7.5 nM.
`CN[C@@H](Cn1c(=O)c(-c2cccc(OCCCCC(=O)O)c2F)c(C)n(Cc2c(F)cccc2C(F)(F)F)c1=O)c1ccccc1` came in with a Ki in series [1] of 1.2 nM. The bioavailability in series [3] turned out to be 13%. For the same compound, in series [4], the Papp A→B came to 1.2 ×10⁻⁶ cm/s. Further, the half-life in series [5] was 5.1 h. Also, the IC50 at Cytochrome P450 3A4 is 13000 nM. Besides, in series [7], the clearance was found to be 50 mL/min/kg.
Turning to `CN[C@@H](Cn1c(=O)c(-c2cccc(OCCCNCC(=O)O)c2F)c(C)n(Cc2c(F)cccc2C(F)(F)F)c1=O)c1ccccc1`, the IC50 at Cytochrome P450 3A4 amounted to 33000 nM. This compound had a Ki in series [2] of 155 nM.
For `Cc1c(-c2cccc(OCCCCC(=O)O)c2)c(=O)n(C[C@H](N)c2ccccc2)c(=O)n1Cc1c(F)cccc1C(F)(F)F`, the inhibition constant (Ki) in series [1] was 4.1 nM. The same compound had a bioavailability in series [3] of 1.1%. In addition, in [4], the apparent permeability from apical to basolateral (Papp A→B) stood at 0.1 ×10⁻⁶ cm/s. For the same compound, the half-life in series [5] was 10 h. For the same compound, the IC50 on Cytochrome P450 3A4 is 22000 nM; in series [6], 26 nM. The compound also had a clearance in series [7] of 7.5 mL/min/kg.
As to `Cc1c(-c2cccc(OCCCCC(=O)O)c2F)c(=O)n(C[C@@H](c2ccccc2)N(C)C)c(=O)n1Cc1c(F)cccc1C(F)(F)F`, in series [1], the Ki worked out at 15 nM. This compound also came in with a Papp A→B in [4] of 17 ×10⁻⁶ cm/s. On Cytochrome P450 3A4, the IC50 stood at 42000 nM.
In turn, `Cc1c(-c2cccc(OCCC(=O)O)c2F)c(=O)n(C[C@H](N)c2ccccc2)c(=O)n1Cc1c(F)cccc1C(F)(F)F` returned a Ki in [2] of 10.1 nM.
